# In publication PMC3499488, “A Potential Peptide Therapeutic Derived from the Juxtamembrane Domain of the Epidermal Growth Factor Receptor” (PLoS ONE, 2012):
# Like-named read-outs stand apart in the source and are kept apart here. Where a SMILES comes first, the peptide text is derived from it.
# Assays:
# MDA-MB-231 cells [1] = assay: Cell viability assay (CellTiter-Glo); format: cell-based, human
# Excerpt: Assays are run in triplicate.
# MDA-MB-231 cells [2] = assay: Cellular entry of FAM-labeled peptides, live-cell fluorescent confocal microscopy; format: cell-based, human; conditions: N-terminally FAM-labeled peptide, monitored up to 90 minutes and/or overnight incubation, confocal fluorescence
# Procedure: MDA-MB-231 cells (1×10^5 cells per plate) were plated on 35 mm glass-bottom plates (MatTek Corporation, Ashland, MA), allowed to adhere overnight, then serum starved overnight and analyzed the following day in HBSS (Hank’s balanced salt solution). For real-time uptake of the FAM-labeled peptides, after recording background images, the FAM-labeled peptides were added and cells were imaged every two minutes over approximately 30 minutes. After 30 minutes, images were taken less frequently. Images from representative timepoints are shown. For overnight treatment, the cells were treated in serum-starved media, exchanged into HBSS the following day and imaged.
# [3] = serum starved overnight (0.1% BSA, no FBS), 24 h treatment, CellTiter-Glo, mean ± S.D. of at least three independent experiments, read-out: EC50± S.D.
Structure (SMILES),fluorescence within the interior of the cell (MDA-MB-231 cells [2]),EC50 (MDA-MB-231 cells [1]; [3]) [µM],also measured
CC[C@H](C)[C@H](NC(=O)[C@H](Cc1c[nH]cn1)NC(=O)[C@H](CCCNC(=N)N)NC(=O)[C@H](CCCNC(=N)N)NC(=O)[C@@H](N)CCCNC(=N)N)C(=O)N[C@H](C(=O)N[C@@H](CCCNC(=N)N)C(=O)N[C@@H](CCCCN)C(=O)N[C@@H](CCCNC(=N)N)C(=O)N[C@H](C(=O)N[C@@H](CC(C)C)C(=O)N[C@@H](CCCNC(=N)N)C(=O)N[C@@H](CCCNC(=N)N)C(=O)N[C@@H](CC(C)C)C(=O)N[C@@H](CC(C)C)C(=O)N[C@@H](CCC(N)=O)C(=O)N[C@@H](CCC(=O)O)C(=O)N[C@@H](CCCNC(=N)N)C(=O)O)[C@@H](C)O)C(C)C [E-64562] (H-RRRHIVRKRTLRRLLQER-OH),–,–,EC50 (MDA-MB-231 cells [1]; 24 h): > 100 µM
CC[C@H](C)[C@H](NC(=O)[C@H](Cc1c[nH]cn1)NC(=O)[C@H](CCCNC(=N)N)NC(=O)[C@H](CCCNC(=N)N)NC(=O)[C@H](CCCNC(=N)N)NC(=O)c1ccc2c(c1)C(=O)OC21c2ccc(O)cc2Oc2cc(O)ccc21)C(=O)N[C@H](C(=O)N[C@@H](CCCNC(=N)N)C(=O)N[C@@H](CCCCN)C(=O)N[C@@H](CCCNC(=N)N)C(=O)N[C@H](C(=O)N[C@@H](CC(C)C)C(=O)N[C@@H](CCCNC(=N)N)C(=O)N[C@@H](CCCNC(=N)N)C(=O)N[C@@H](CC(C)C)C(=O)N[C@@H](CC(C)C)C(=O)N[C@@H](CCC(N)=O)C(=O)N[C@@H](CCC(=O)O)C(=O)N[C@@H](CCCNC(=N)N)C(=O)O)[C@@H](C)O)C(C)C [FAM-conjugated E-64562] (HELM PEPTIDE1{[O=C1OC2(c3ccc(O)cc3Oc3cc(O)ccc32)c2ccc(C(=O)[*:2])cc21].R.R.R.H.I.V.R.K.R.T.L.R.R.L.L.Q.E.R}$$$$V2.0),did not display any fluorescence within the interior of the cell,–,–
"N=C(N)NCCC[C@H](NC(=O)c1ccc2c(c1)C(=O)OC21c2ccc(O)cc2Oc2cc(O)ccc21)C(=O)N[C@@H](CCCCN)C(=O)N[C@@H](CCCCN)C(=O)N[C@@H](CCCNC(=N)N)C(=O)N[C@@H](CCCNC(=N)N)C(=O)N[C@@H](CCC(N)=O)C(=O)N[C@@H](CCCNC(=N)N)C(=O)N[C@@H](CCCNC(=N)N)C(=O)N[C@@H](CCCNC(=N)N)C(=O)NCC(=O)O [FAM-conjugated Tat, reference compound] (HELM PEPTIDE1{[O=C1OC2(c3ccc(O)cc3Oc3cc(O)ccc32)c2ccc(C(=O)[*:2])cc21].R.K.K.R.R.Q.R.R.R.G}$$$$V2.0)",did not display any fluorescence within the interior of the cell,–,–
CC[C@H](C)[C@H](NC(=O)[C@H](CCCNC(=N)N)NC(=O)[C@H](CC(C)C)NC(=O)[C@H](CC(C)C)NC(=O)[C@H](C)NC(=O)[C@H](CCC(N)=O)NC(=O)[C@H](CC(N)=O)NC(=O)[C@@H]1CCCN1C(=O)[C@H](C)NC(=O)[C@H](CCC(=O)O)NC(=O)CNC(=O)[C@H](CO)NC(=O)[C@@H]1CCCN1C(=O)[C@@H](NC(=O)[C@H](CC(C)C)NC(=O)[C@@H]1CCCN1C(=O)[C@H](CCC(=O)O)NC(=O)[C@@H](NC(=O)CNC(=O)[C@H](CCCNC(=N)N)NC(=O)[C@H](CCCNC(=N)N)NC(=O)[C@H](CCCNC(=N)N)NC(=O)[C@H](CCC(N)=O)NC(=O)[C@H](CCCNC(=N)N)NC(=O)[C@H](CCCNC(=N)N)NC(=O)[C@H](CCCCN)NC(=O)[C@H](CCCCN)NC(=O)[C@H](CCCNC(=N)N)NC(=O)c1ccc2c(c1)C(=O)OC21c2ccc(O)cc2Oc2cc(O)ccc21)C(C)C)[C@@H](C)O)C(=O)O [FAM-labeled TE-66482] (HELM PEPTIDE1{[O=C1OC2(c3ccc(O)cc3Oc3cc(O)ccc32)c2ccc(C(=O)[*:2])cc21].R.K.K.R.R.Q.R.R.R.G.V.E.P.L.T.P.S.G.E.A.P.N.Q.A.L.L.R.I}$$$$V2.0),did not display any fluorescence within the interior of the cell,–,–
CC[C@H](C)[C@H](NC(=O)[C@H](CCCNC(=N)N)NC(=O)[C@H](CC(C)C)NC(=O)[C@H](CCC(=O)O)NC(=O)[C@H](CCC(=O)O)NC(=O)[C@H](CC(C)C)NC(=O)[C@H](C)NC(=O)[C@H](CCCNC(=N)N)NC(=O)[C@H](CCC(=O)O)NC(=O)[C@H](CCC(=O)O)NC(=O)[C@@H](NC(=O)[C@H](CCCNC(=N)N)NC(=O)[C@H](C)NC(=O)[C@H](CCCNC(=N)N)NC(=O)[C@H](CCC(=O)O)NC(=O)[C@H](CCC(=O)O)NC(=O)CNC(=O)[C@H](CCCNC(=N)N)NC(=O)[C@H](CCCNC(=N)N)NC(=O)[C@H](CCCNC(=N)N)NC(=O)[C@H](CCC(N)=O)NC(=O)[C@H](CCCNC(=N)N)NC(=O)[C@H](CCCNC(=N)N)NC(=O)[C@H](CCCCN)NC(=O)[C@H](CCCCN)NC(=O)[C@@H](N)CCCNC(=N)N)C(C)C)C(=O)N[C@@H](CCC(=O)O)C(=O)N[C@@H](CCC(=O)O)C(=O)O [T-control] (H-RKKRRQRRRGEERARVEERALEELRIEE-OH),–,> 100,–
CC(C)C[C@H](NC(=O)[C@H](CC(C)C)NC(=O)[C@H](CCCNC(=N)N)NC(=O)[C@H](CCCNC(=N)N)NC(=O)[C@H](C)NC(=O)[C@H](C)NC(=O)[C@H](CCCNC(=N)N)NC(=O)[C@H](CCCCN)NC(=O)[C@H](CCCNC(=N)N)NC(=O)[C@H](C)NC(=O)[C@H](C)NC(=O)[C@H](Cc1c[nH]cn1)NC(=O)[C@H](CCCNC(=N)N)NC(=O)[C@H](CCCNC(=N)N)NC(=O)[C@H](CCCNC(=N)N)NC(=O)CNC(=O)[C@H](CCCNC(=N)N)NC(=O)[C@H](CCCNC(=N)N)NC(=O)[C@H](CCCNC(=N)N)NC(=O)[C@H](CCC(N)=O)NC(=O)[C@H](CCCNC(=N)N)NC(=O)[C@H](CCCNC(=N)N)NC(=O)[C@H](CCCCN)NC(=O)[C@H](CCCCN)NC(=O)[C@@H](N)CCCNC(=N)N)C(=O)N[C@@H](C)C(=O)N[C@@H](C)C(=O)N[C@@H](CCCNC(=N)N)C(=O)O [T-poly-Ala] (H-RKKRRQRRRGRRRHAARKRAARRLLAAR-OH),–,> 100,–
CC[C@H](C)[C@H](NC(=O)[C@H](CCCNC(=N)N)NC(=O)[C@H](CC(C)C)NC(=O)[C@H](CC(C)C)NC(=O)[C@H](C)NC(=O)[C@H](CCC(N)=O)NC(=O)[C@H](CC(N)=O)NC(=O)[C@@H]1CCCN1C(=O)[C@H](C)NC(=O)[C@H](CCC(=O)O)NC(=O)CNC(=O)[C@H](CO)NC(=O)[C@@H]1CCCN1C(=O)[C@@H](NC(=O)[C@H](CC(C)C)NC(=O)[C@@H]1CCCN1C(=O)[C@H](CCC(=O)O)NC(=O)[C@@H](NC(=O)CNC(=O)[C@H](CCCNC(=N)N)NC(=O)[C@H](CCCNC(=N)N)NC(=O)[C@H](CCCNC(=N)N)NC(=O)[C@H](CCC(N)=O)NC(=O)[C@H](CCCNC(=N)N)NC(=O)[C@H](CCCNC(=N)N)NC(=O)[C@H](CCCCN)NC(=O)[C@H](CCCCN)NC(=O)[C@@H](N)CCCNC(=N)N)C(C)C)[C@@H](C)O)C(=O)O [TE-66482] (H-RKKRRQRRRGVEPLTPSGEAPNQALLRI-OH),–,> 100,–
"N=C(N)NCCC[C@H](NC(=O)[C@H](CCCNC(=N)N)NC(=O)[C@H](CCCNC(=N)N)NC(=O)[C@H](CCC(N)=O)NC(=O)[C@H](CCCNC(=N)N)NC(=O)[C@H](CCCNC(=N)N)NC(=O)[C@H](CCCCN)NC(=O)[C@H](CCCCN)NC(=O)[C@@H](N)CCCNC(=N)N)C(=O)NCC(=O)O [Tat, reference compound] (H-RKKRRQRRRG-OH)",–,> 100,–
